# Laboratory results: US12029751B2, “Therapeutic agent for nervous system disease” (OSAKA UNIVERSITY, priority 2017, dated 2024)
# How the values were obtained:
# [1] = system: Mouse macrophage cell line J774A.1; test: Western blot of M1 markers (IL-1β, iNOS) and M2 markers (Arg1, CD206) in macrophage cell line; assay type: cell-based; details: for Arg1 protein / GAPDH protein / CD206 protein / GAPDH protein: 72 hours; for IL-1β protein / GAPDH protein / iNOS protein / GAPDH protein: 24 hours
# Procedure: Mouse macrophage cell line J774A.1 (JCRB9108) was purchased from JCRB Cell Bank (Laboratory of Cell Cultures), Osaka, Japan. Cells were cultured in DMEM containing 10% FBS and 1% penicillin/streptomycin.
# The J774A.1 cells (Example 5-1) were seeded on a dish having a diameter of 6 cm. After 4 days, proteins were collected using a cell lysis buffer containing a cocktail of protease inhibitors. The protein concentration was measured by BCA assay. Then, 50 μg of each sample was subjected to SDS-PAGE, and the electrophoresed proteins were transferred to a polyvinylidene difluoride membrane. The membrane was blocked with a blocking buffer for 1 hour, and then the proteins were allowed to react with primary antibodies at 4° C. overnight. The proteins were further allowed to react with a secondary antibody at room temperature for 1 hour and detected using ECL Western Blotting Detection System. To detect the M1 markers iNOS and IL-1β, lipopolysaccharide (LPS) (100 ng/ml) and methylcobalamin were added at 24 hours before collecting the proteins. To detect the M2 markers Arg1 and CD206, IL-4 (20 ng/ml) and methylcobalamin were added at 72 hours before collecting the proteins.
# The primary antibodies used were a rabbit anti-IL-1β polyclonal antibody (Santa Cruz), a rabbit anti-iNOS monoclonal antibody (Abeam), a rabbit anti-Arg1 polyclonal antibody (Santa Cruz), and a rabbit anti-CD206 monoclonal antibody (Abeam). The secondary antibody used was anti-rabbit IgG, horseradish peroxidase-linked whole antibody from donkey (GE Healthcare Life Sciences).
# [2] = system: cerebral cortical neurons; test: Neurite outgrowth assay (axon outgrowth promoting effect); assay type: cell-based, rat; details: for average length of axons: 72 hours after cell seeding
# Source text: Cerebral cortical neurons were collected and cultured by a conventional method. Cerebral cortex was dissected from a fetus of a Sprague-Dawley (SD) rat (18th day of pregnancy) and recovered in ice-cooled Dulbecco's Modified Eagle Medium (DMEM) containing 10% fetal bovine serum (FBS) and 1% penicillin/streptomycin. The pia mater and blood vessels were removed, and the remaining cerebral cortex was transferred to DMEM (containing 1% penicillin/streptomycin and no FBS) and cut into small pieces having a size of 1 mm by surgical scissors. Papain (final concentration, 2 mg/ml) was added to the cell mixture, and the mixture was allowed to react at 37° C. for 30 minutes. DNase I (70 U/ml) was added to the reaction mixture and reaction was carried out for 30 seconds. Then, DMEM containing 10% FBS and 1% penicillin/streptomycin was added to terminate the reaction. The cell mixture was centrifuged at 800 rpm, the residue was re-suspended in DMEM containing 10% FBS and 1% penicillin/streptomycin, and the suspension was seeded on a dish coated with poly-L lysine (PLL). At 4 hours after the cell seeding, the medium was replaced with Neurobasal medium (containing 10% B27 supplement and 1% penicillin/streptomycin).
# The cerebral cortical neurons (Example 1-1) were seeded, and the drug was added in different concentrations at 24 hours. The concentrations of methylcobalamin added were 1, 10, and 100 nM and 1, 10, and 100 μM. At 72 hours after the cell seeding, immunofluorescent staining was performed using an anti-TuJ1 antibody, and the lengths of axons (the longest neurite length per neuron) were measured. The measurement was performed on cells that were not in contact with other cells. In each evaluation, at least 30 neural axons were measured, and the mean of the obtained values was calculated and designated as a measured value.
# [3] = system: microglia cell line (6-3 cells); test: Western blot of M1 markers (iNOS, IL-1β) and M2 markers (Arg1, CD206) in microglia; assay type: cell-based
# Procedure: To a microglia cell line (6-3 cells), LPS (100 ng/ml) and an anti-inflammatory cytokine IL-4 (20 ng/ml) were added. Methylcobalamin solutions each having a different concentration ranging from 1 nM to 1 mM were added to the mixture, and proteins were recovered from each mixture at 1 and 3 days after the addition. Electrophoresis and transfer to a membrane were performed, the membrane was blocked, and the cells were allowed to react with each of primary antibodies against M1 markers (iNOS and IL-1β) and M2 markers (Arg1 and CD206) at 4° C. overnight. Cells were allowed to react with a secondary antibody at room temperature for 1 hour, and bands were detected using a detector.
# The primary antibodies used were an anti-iNOS antibody, an anti-IL-1β antibody, an anti-Arg1 antibody, and an anti-CD206 (a mannose receptor) antibody. The secondary antibody used was an Anti-Rabbit IgG, HRP-Linked Whole Ab Sheep.
smiles,measurement,setting,value
"C/C1=C2/[N-][C@H]([C@H](CC(N)=O)[C@@]2(C)CCC(=O)NC[C@@H](C)OP(=O)([O-])O[C@H]2[C@@H](O)[C@@H](n3cnc4cc(C)c(C)cc43)O[C@@H]2CO)[C@]2(C)N=C(/C(C)=C3N=C(/C=C4N=C1[C@@H](CCC(N)=O)C\4(C)C)[C@@H](CCC(N)=O)[C@]\3(C)CC(N)=O)[C@@H](CCC(N)=O)[C@]2(C)CC(N)=O.[CH3-].[Co+3] [MeCbl, methylcobalamin]",Arg1 protein / GAPDH protein,[1]; IL-4 20 ng/ml + MeCbl 1 nM,1.42
same,CD206 protein / GAPDH protein,[1]; IL-4 20 ng/ml + MeCbl 1 nM,1.28
same,Arg1 protein / GAPDH protein,[1]; IL-4 20 ng/ml + MeCbl 10 nM,1.60
same,CD206 protein / GAPDH protein,[1]; IL-4 20 ng/ml + MeCbl 10 nM,1.49
same,Arg1 protein / GAPDH protein,[1]; IL-4 20 ng/ml + MeCbl 100 nM,1.93
same,CD206 protein / GAPDH protein,[1]; IL-4 20 ng/ml + MeCbl 100 nM,1.53
same,Arg1 protein / GAPDH protein,"[1]; IL-4 20 ng/ml + MeCbl 100 nM, listed as methylcobalamin",significantly increased
same,Arg1 protein / GAPDH protein,[1]; IL-4 20 ng/ml + MeCbl 1 μM,1.65
same,CD206 protein / GAPDH protein,[1]; IL-4 20 ng/ml + MeCbl 1 μM,1.58
same,Arg1 protein / GAPDH protein,"[1]; IL-4 20 ng/ml + MeCbl 1 μM, listed as methylcobalamin",significantly increased
same,Arg1 protein / GAPDH protein,[1]; IL-4 20 ng/ml + MeCbl 10 μM,1.26
same,CD206 protein / GAPDH protein,[1]; IL-4 20 ng/ml + MeCbl 10 μM,1.08
same,Arg1 protein / GAPDH protein,[1]; IL-4 20 ng/ml + MeCbl 100 μM,0.92
same,CD206 protein / GAPDH protein,[1]; IL-4 20 ng/ml + MeCbl 100 μM,1.12
same,Arg1 protein / GAPDH protein,[1]; IL-4 20 ng/ml + MeCbl 1 mM,0.54
same,CD206 protein / GAPDH protein,[1]; IL-4 20 ng/ml + MeCbl 1 mM,0.78
same,methylcobalamin concentration at peaks of the CD206 levels,"[1]; IL-4 + methylcobalamin, Western blot",100 to 1000 nM
same,IL-1β protein / GAPDH protein,[1]; LPS 100 ng/ml + MeCbl 1 nM,0.91
same,iNOS protein / GAPDH protein,[1]; LPS 100 ng/ml + MeCbl 1 nM,0.87
same,IL-1β protein / GAPDH protein,[1]; LPS 100 ng/ml + MeCbl 10 nM,0.68
same,iNOS protein / GAPDH protein,[1]; LPS 100 ng/ml + MeCbl 10 nM,0.56
same,IL-1β protein / GAPDH protein,[1]; LPS 100 ng/ml + MeCbl 100 nM,0.46
same,iNOS protein / GAPDH protein,[1]; LPS 100 ng/ml + MeCbl 100 nM,0.15
same,IL-1β protein / GAPDH protein,"[1]; LPS 100 ng/ml + MeCbl 100 nM, listed as methylcobalamin",significantly decreased
same,IL-1β protein / GAPDH protein,[1]; LPS 100 ng/ml + MeCbl 1 μM,0.46
same,iNOS protein / GAPDH protein,[1]; LPS 100 ng/ml + MeCbl 1 μM,0.27
same,IL-1β protein / GAPDH protein,[1]; LPS 100 ng/ml + MeCbl 10 μM,0.60
same,iNOS protein / GAPDH protein,[1]; LPS 100 ng/ml + MeCbl 10 μM,0.33
same,IL-1β protein / GAPDH protein,[1]; LPS 100 ng/ml + MeCbl 100 μM,0.75
same,iNOS protein / GAPDH protein,[1]; LPS 100 ng/ml + MeCbl 100 μM,0.45
same,IL-1β protein / GAPDH protein,[1]; LPS 100 ng/ml + MeCbl 1 mM,1.26
same,iNOS protein / GAPDH protein,[1]; LPS 100 ng/ml + MeCbl 1 mM,0.53
same,iNOS level (Western blot) as compared with LPS alone,[1]; LPS + 100 nM to 10 μM methylcobalamin,significantly decreased
same,average length of axons,[2]; MeCbl 1 nM,67.2 µm
same,average length of axons,[2]; MeCbl 10 nM,71.2 µm
same,average length of axons,[2]; MeCbl 100 nM,75.2 µm
same,average length of axons,[2]; MeCbl 1 μM,79.9 µm
same,average length of axons,"[2]; MeCbl 1 μM, listed as methylcobalamin",significantly promoted
same,average length of axons,[2]; MeCbl 10 μM,86.4 µm
same,average length of axons,"[2]; MeCbl 10 μM, listed as methylcobalamin",significantly promoted
same,average length of axons,[2]; MeCbl 100 μM,66.2 µm
same,methylcobalamin concentration at peak of axon outgrowth promotion,[2]; concentrations 1 nM to 100 μM tested,10 µM
same,amount of Arg1 protein as compared with IL-4 alone,[3]; IL-4 + 1 nM to 10 μM methylcobalamin,significantly increased
same,amount of CD206 as compared with IL-4 alone,[3]; IL-4 + 10 nM to 100 nM methylcobalamin,significantly increased
same,"Arg1 (amount of protein, IL-4 alone = 1.00)",[3]; MeCbl 1 nM,1.78
same,"CD206 (amount of protein, IL-4 alone = 1.00)",[3]; MeCbl 1 nM,1.11
same,"Arg1 (amount of protein, IL-4 alone = 1.00)",[3]; MeCbl 10 nM,2.03
same,"CD206 (amount of protein, IL-4 alone = 1.00)",[3]; MeCbl 10 nM,1.42
same,"Arg1 (amount of protein, IL-4 alone = 1.00)",[3]; MeCbl 100 nM,2.72
same,"CD206 (amount of protein, IL-4 alone = 1.00)",[3]; MeCbl 100 nM,1.39
same,"Arg1 (amount of protein, IL-4 alone = 1.00)",[3]; MeCbl 1 μM,2.20
same,"CD206 (amount of protein, IL-4 alone = 1.00)",[3]; MeCbl 1 μM,1.17
same,"Arg1 (amount of protein, IL-4 alone = 1.00)",[3]; MeCbl 10 μM,2.08
same,"CD206 (amount of protein, IL-4 alone = 1.00)",[3]; MeCbl 10 μM,1.17
same,"Arg1 (amount of protein, IL-4 alone = 1.00)",[3]; MeCbl 100 μM,1.37
same,"CD206 (amount of protein, IL-4 alone = 1.00)",[3]; MeCbl 100 μM,1.24
same,"Arg1 (amount of protein, IL-4 alone = 1.00)",[3]; MeCbl 1 mM,0.59
same,"CD206 (amount of protein, IL-4 alone = 1.00)",[3]; MeCbl 1 mM,1.11
same,amount of iNOS protein as compared with LPS alone,[3]; LPS + at least 10 nM methylcobalamin,significantly decreased
same,amount of IL-1β protein as compared with LPS alone,[3]; LPS + at least 1 μM methylcobalamin,significantly decreased
same,"IL-1β (amount of protein, LPS alone = 1.00)",[3]; MeCbl 1 nM,1.02
same,"iNOS (amount of protein, LPS alone = 1.00)",[3]; MeCbl 1 nM,0.87
same,"IL-1β (amount of protein, LPS alone = 1.00)",[3]; MeCbl 10 nM,0.95
same,"iNOS (amount of protein, LPS alone = 1.00)",[3]; MeCbl 10 nM,0.74
same,"IL-1β (amount of protein, LPS alone = 1.00)",[3]; MeCbl 100 nM,0.83
same,"iNOS (amount of protein, LPS alone = 1.00)",[3]; MeCbl 100 nM,0.76
same,"IL-1β (amount of protein, LPS alone = 1.00)",[3]; MeCbl 1 μM,0.72
same,"iNOS (amount of protein, LPS alone = 1.00)",[3]; MeCbl 1 μM,0.61
same,"IL-1β (amount of protein, LPS alone = 1.00)",[3]; MeCbl 10 μM,0.58
same,"iNOS (amount of protein, LPS alone = 1.00)",[3]; MeCbl 10 μM,0.46
same,"IL-1β (amount of protein, LPS alone = 1.00)",[3]; MeCbl 100 μM,0.53
same,"iNOS (amount of protein, LPS alone = 1.00)",[3]; MeCbl 100 μM,0.36
same,"IL-1β (amount of protein, LPS alone = 1.00)",[3]; MeCbl 1 mM,0.32
same,"iNOS (amount of protein, LPS alone = 1.00)",[3]; MeCbl 1 mM,0.05
